In patent US20240308987A1, “SMALL MOLECULE INHIBITOR AGAINST NASOPHARYNGEAL CARCINOMA, PREPARATION METHOD AND APPLICATION THEREOF” (SHENZHEN BAY LABORATORY, priority 2021, published 2024):

Tested on: C666-1 cells
Experiment: C666-1 Cell Viability Assay (Resazurin cytotoxicity test)
Format: cell-based
Conditions: Homo sapiens, C6661, EB virus-positive C666-1 cells, 72 hours treatment, 100-0.78 micromole/L, read-out: Inhibitory Rate
Method: In order to evaluate the inhibitory effect of the small molecular compound of the present disclosure on EBNA1 at the cellular level, a cytotoxicity test was performed.
As mentioned in the Background of the present disclosure, nasopharyngeal carcinoma is a kind of disease highly associated with latent infection of EB virus. EB virus in latent state only expresses limited proteins to maintain its genome replication, among which EBNA1 protein is an essential functional protein. Studies have confirmed that inhibition of EBNA1 can reduce the proliferation of the corresponding nasopharyngeal carcinoma cells or kill them. Therefore, EB virus-positive nasopharyngeal carcinoma tumor cells (C666-1 cells) are selected for test to verify the effect of the small molecular compound of the present disclosure.
During testing, 100 microliters of different cell lines were inoculated onto a transparent 96-well plate, and 5×10^3 cells were inoculated in each well for C666-1 cells. After the cells were cultured in an incubator under […] at 37° C. for 24 hours, 10 microliters of compound with a concentration ranging from 1 mmol/L to 7.8 micromol/L were added to each well (8 points, double dilution, the final concentration was 100-0.78 micromole/L), and treated in the incubator under carbon dioxide at 37° C. for 72 hours. Cell viability was assessed using the redox indicator Resazurin. After addition of 10 microliters of 600 micromole/liter Resazurin to each well and incubation at 37° C. for 3 hours. Using a Tecan microplate reader, the fluorescence signals were detected at an […]. A software was used to fit the inhibition curve and calculate half-maximal effect concentration (EC50). The selectivity of compound activity was assessed by comparing the EC50 values of EB virus-positive and EB virus-negative cell lines.

| SMILES | EC50 [µM] |
| --- | --- |
| O=C(O)c1cccc(N2CC(Oc3ccc(CNc4cccnc4)cc3)C2)c1-c1cccc(Cl)c1 [Example 38a, 3′-chloro-6-(3-(4-((pyridin-3-ylamino)methyl)phenoxy)azetidin-1-yl)-[1,1′-biphenyl]-2-carboxylic acid] | 10 to 50 |
| O=C(Cc1ccc(C#Cc2cccc(C(=O)O)c2-c2ccccc2)cc1)Nc1cccnc1 [Example 60a, 6-((4-(2-oxo-2-(pyridin-3-ylamino)ethyl)phenyl)ethynyl)-[1,1′-biphenyl]-2-carboxylic acid] | < 1 |
| O=C(O)c1cccc(N2CC(Oc3ccc(COc4cccnc4)c(Cl)c3)C2)c1-n1cccc1 [Example 19a, 3-(3-(3-chloro-4-((pyridin-3-yloxy)methyl)phenoxy)azetidin-1-yl)-2-(1H-pyrrol-1-yl) benzoic acid] | 10 to 50 |
| Cc1c(C(=O)O)cccc1N1CC(Oc2ccc(NC(=O)Cc3cccnc3)cc2)C1 [Example 53a, 2-methyl-3-(3-(4-(2-(pyridin-3-yl)acetamido)phenoxy)azetidin-1-yl) benzoic acid] | 10 to 50 |
| O=C(O)c1cccc(N2CC(Oc3ccc(COc4cccnc4)cc3)C2)c1-n1cccc1 [Example 1a, 3-(3-(4-((pyridin-3-yloxy)methyl)phenoxy)azetidin-1-yl)-2-(1H-pyrrol-1-yl) benzoic acid] | 1 to 10 |
| COC(=O)c1cccc(C#Cc2ccc(NC(=O)Cc3cccnc3)cc2)c1-c1ccccc1 [Example 62, methyl 6-((4-(2-(pyridin-3-yl)acetamido)phenyl)ethynyl)-[1,1′-biphenyl]-2-carboxylate] | < 1 |
| COC(=O)c1cccc(N2CC(Oc3ccc(COc4cccnc4)cc3)C2)c1-c1ccccc1 [Example 17, methyl 6-(3-(4-((pyridin-3-yloxy)methyl)phenoxy)azetidin-1-yl)-[1,1′-biphenyl]-2-carboxylate] | 1 to 10 |
| O=C(O)c1cccc(N2CC(Oc3ccc(Oc4cccnc4)cc3)C2)c1-n1cccc1 [Example 25a, 3-(3-(4-(pyridin-3-yloxy)phenoxy)azetidin-1-yl)-2-(1H-pyrrol-1-yl) benzoic acid] | > 50 |
| CONC(=O)c1cccc(N2CC(Oc3ccc(NC(=O)Cc4cccnc4)cc3)C2)c1-c1ccccc1 [Example 45d, N-methoxy-6-(3-(4-(2-(pyridin-3-yl)acetamido)phenoxy)azetidin-1-yl)-[1,1′-biphenyl]-2-carboxamide] | 10 to 50 |
| O=C(Nc1ccc(C#Cc2cccc(C(=O)NO)c2-c2ccccc2)cc1)Nc1cccnc1 [Example 58b, N-hydroxy-6-((4-(3-(pyridin-3-yl)ureido)phenyl)ethynyl)-[1,1′-biphenyl]-2-carboxamide] | < 1 |
| Cc1cncc(OCc2ccc(OC3CN(c4cccc(C(=O)O)c4-n4cccc4)C3)cc2)c1 [Example 3a, 3-(3-(4-((5-methylpyridin-3-yloxy)methyl)phenoxy)azetidin-1-yl)-2-(1H-pyrrol-1-yl) benzoic acid] | > 50 |
| COC(=O)c1cccc(N2CC(Oc3ccc(NC(=O)Cc4cccnc4)c(F)c3)C2)c1-c1ccccc1 [Example 54, methyl 6-(3-(3-fluoro-4-(2-(pyridin-3-yl)acetamido)phenoxy)azetidin-1-yl)-[1,1′-biphenyl]-2-carboxylate] | 1 to 10 |
| CN(C)C(=O)c1cccc(N2CC(Oc3ccc(COc4cccnc4)cc3)C2)c1-n1cccc1 [Example 1e, N,N-dimethyl-3-(3-(4-((pyridin-3-yloxy)methyl)phenoxy)azetidin-1-yl)-2-(1H-pyrrol-1-yl) benzamide] | 1 to 10 |
| O=C(O)c1cccc(N2CC(Oc3ccc(Oc4ccncc4)cc3)C2)c1-n1cccc1 [Example 26a, 3-(3-(4-(pyridin-4-yloxy)phenoxy)azetidin-1 - yl)-2-(1H-pyrrol-1-yl) benzoic acid] | 10 to 50 |
| O=C(O)c1cccc(N2CC(Oc3ccc(COc4cnccn4)cc3)C2)c1-n1cccc1 [Example 13a, 3-(3-(4-((pyrazin-2-yloxy)methyl)phenoxy)azetidin-1-yl)-2-(1H-pyrrol-1-yl) benzoic acid] | > 50 |
| O=C(Nc1ccc(OC2CN(c3cccc(C(=O)NO)c3-c3cccc(Cl)c3)C2)cc1)Nc1cccnc1 [Example 41b, 3′-chloro-N-hydroxy-6-(3-(4-(3-(pyridin-3-yl)ureido)phenoxy)azetidin-1-yl)-[1,1′-biphenyl]-2-carboxamide] | < 1 |
| COC(=O)c1cccc(N2CC(Oc3ccc(COc4cnccc4C)cc3)C2)c1-n1cccc1 [Example 2, methyl 3-(3-(4-((4-methylpyridin-3-yloxy)methyl)phenoxy)azetidin-1-yl)-2-(1H-pyrrol-1-yl) benzoate] | > 50 |

| SMILES | EC50 [µM] |
| --- | --- |
| COC(=O)c1cccc(N2CC(Oc3ccc(NC(=O)Nc4cccc(C(F)(F)F)c4)cc3)C2)c1-c1cccc(Cl)c1 [Example 37, methyl 3′-chloro-6-(3-(4-(3-(3-(trifluoromethyl)phenyl)ureido)phenoxy)azetidin-1-yl)-[1,1′-biphenyl]-2-carboxylate] | 10 to 50 |
| O=C(O)c1cccc(N2CC(Oc3ccc(/C=C/c4cccnc4)cc3)C2)c1-c1ccccc1 [Example 36a, (E)-6-(3-(4-(2-(pyridin-3-yl)vinyl)phenoxy)azetidin-1-yl)-[1,1′-biphenyl]-2-carboxylic acid] | 10 to 50 |
| COC(=O)c1cccc(N2CC(Oc3ccc(NC(=O)Cc4cccnc4)cc3)C2)c1-n1cccc1 [Example 51, methyl 3-(3-(4-(2-(pyridin-3-yl)acetamido)phenoxy)azetidin-1-yl)-2-(1H-pyrrol-1-yl) benzoate] | < 1 |
| COC(=O)c1cccc(N2CC(Oc3ccc(COc4cccs4)cc3)C2)c1-n1cccc1 [Example 30, methyl 2-(1H-pyrrol-1-yl)-3-(3-(4-((thiophen-2-yloxy)methyl)phenoxy)azetidin-1-yl) benzoate] | > 50 |
| O=C(O)c1cccc(N2CC(Oc3ccc(COc4ccncc4)cc3)C2)c1-n1cccc1 [Example 8a, 3-(3-(4-((pyridin-4-yloxy)methyl)phenoxy)azetidin-1-yl)-2-(1H-pyrrol-1-yl) benzoic acid] | > 50 |
| COC(=O)c1cccc(N2CC(Oc3ccc(NC(=O)Nc4cccnc4)cc3)C2)c1-n1cccc1 [Example 34, methyl 3-(3-(4-(3-(pyridin-3-yl)ureido)phenoxy)azetidin-1-yl)-2-(1H-pyrrol-1-yl) benzoate] | < 1 |
| O=C(Nc1ccc(C#Cc2cccc(C(=O)O)c2-c2ccc3cc[nH]c3c2)cc1)Nc1cccnc1 [Example 59a, 2-(1H-indol-6-yl)-3-((4-(3-(pyridin-3-yl)ureido)phenyl)ethynyl) benzoic acid] | < 1 |
| COC(=O)c1cccc(N2CC(Oc3ccc(NC(=O)Nc4cccc(C(F)(F)F)c4)cc3)C2)c1-n1cccc1 [Example 10, methyl 2-(1H-pyrrol-1-yl)-3-(3-(4-(3-(3-(trifluoromethyl)phenyl)ureido)phenoxy)azetidin-1-yl) benzoate] | 10 to 50 |
| COC(=O)c1cccc(N2CC(Oc3ccc(NC(=O)Nc4cccnc4)cc3)C2)c1 [Example 50, methyl 3-(3-(4-(3-(pyridin-3-yl)ureido)phenoxy)azetidin-1-yl) benzoate] | 1 to 10 |
| COC(=O)c1cccc(N2CC(Oc3ccc(CC(=O)Nc4cccnc4)cc3)C2)c1 [Example 43, methyl 3-(3-(4-(2-oxo-2-(pyridin-3-ylamino)ethyl)phenoxy)azetidin-1-yl) benzoate] | 1 to 10 |
| O=C(O)c1cccc(N2CC(Oc3ccc(COc4cccs4)cc3)C2)c1-n1cccc1 [Example 30a, 2-(1H-pyrrol-1-yl)-3-(3-(4-((thiophen-2-yloxy)methyl)phenoxy)azetidin-1-yl) benzoic acid] | > 50 |
| O=C(Cc1cccnc1)Nc1ccc(OC2CN(c3cccc(C(=O)O)c3-n3cccc3)C2)cc1F [Example 52a, 3-(3-(3-fluoro-4-(2-(pyridin-3-yl)acetamido)phenoxy)azetidin-1-yl)-2-(1H-pyrrol-1-yl) benzoic acid] | < 1 |
| O=C(Cc1cccnc1)Nc1ccc(OC2CN(c3ccccc3-c3ccccc3)C2)cc1 [Example 45e, N-(4-((1-([1,1′-biphenyl]-2-yl)azetidin-3-yl)oxy)phenyl)-2-(pyridin-3-yl)acetamide] | 10 to 50 |
| COC(=O)c1cccc(N2CC(Oc3ccc(NC(=O)Nc4cccnc4)cc3)C2)c1-c1cccc(Cl)c1 [Example 41, methyl 3′-chloro-6-(3-(4-(3-(pyridin-3-yl)ureido)phenoxy)azetidin-1-yl)-[1,1′-biphenyl]-2-carboxylate] | < 1 |
| O=C(Nc1ccc(OC2CN(c3cccc(C(=O)O)c3-n3cccc3)C2)cc1)Nc1cccc(C(F)(F)F)c1 [Example 10a, 2-(1H-pyrol-1-yl)-3-(3-(4-(3-(3-(trifluoromethyl)phenyl)ureido)phenoxy)azetidin-1-yl) benzoic acid] | 10 to 50 |
| COC(=O)c1cccc(N2CC(Oc3ccc(COc4ccc(C)nc4)cc3)C2)c1-n1cccc1 [Example 5, methyl 3-(3-(4-((6-methylpyridin-3-yloxy)methyl)phenoxy)azetidin-1-yl)-2-(1H-pyrrol-1-yl) benzoate] | > 50 |
